Where two headings read alike, the source gives them in different places.
Tests used:
P. berghei (NK-65) = assay: Oral efficacy in P. berghei; settings: 100 and 200 mg/kg oral on days 3, 4, 5
P. falciparum 3D7 = P. falciparum 3D7 growth inhibition; type: cell-based; settings: Plasmodium falciparum, 3D7, 72 h, read-out: 3D7 EC50
[1] = Liver microsomal stability, human; type: in vitro ADME; settings: both, pH 7.4
P. falciparum K1 = P. falciparum K1 growth inhibition; type: cell-based; settings: Plasmodium falciparum, K1, 72 h, read-out: K1 EC50
[2] = In vivo pharmacokinetics, oral, female CD-1 mice; settings: for AUC(0-inf) / CL/F: female, CD-1, mouse, po
Kir6.2/SUR2A = settings: read-out: Kir6.2 IC50; cited from earlier work
[3] = Parallel Artificial membrane Permeability Assay; type: in vitro ADME; settings: triplicate
[4] = Liver microsomal stability, mouse; type: in vitro ADME; settings: female, CD9, mouse, mouse liver microsomes, pH 7.4
CYP2D6 = CYP2D6 (Homo sapiens, UniProt P10635); assay: CYP inhibition in human liver microsomes, CYP2D6; type: in vitro ADME; settings: 20 minutes at 37 °C, two concentrations
Nav1.5 = settings: cited from earlier work
[5] = human liver microsomes (pooled)

Sequence of CYP2D6 (P10635 whole entry): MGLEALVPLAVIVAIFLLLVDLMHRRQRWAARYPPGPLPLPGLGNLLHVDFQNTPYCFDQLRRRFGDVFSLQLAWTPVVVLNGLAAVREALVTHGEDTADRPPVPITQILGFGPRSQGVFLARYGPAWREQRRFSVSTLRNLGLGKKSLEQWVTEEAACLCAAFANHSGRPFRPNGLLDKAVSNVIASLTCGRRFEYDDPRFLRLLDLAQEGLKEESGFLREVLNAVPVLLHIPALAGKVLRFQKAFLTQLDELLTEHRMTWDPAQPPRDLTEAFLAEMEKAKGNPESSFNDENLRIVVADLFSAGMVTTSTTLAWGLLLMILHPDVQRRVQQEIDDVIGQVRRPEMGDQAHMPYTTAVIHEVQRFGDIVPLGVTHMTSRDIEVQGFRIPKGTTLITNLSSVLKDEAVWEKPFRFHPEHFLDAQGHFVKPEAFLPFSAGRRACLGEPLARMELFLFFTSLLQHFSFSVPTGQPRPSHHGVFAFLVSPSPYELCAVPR

Structure (SMILES): O=C(CCc1ccccc1)c1ccccc1OCC(O)CN1CCN(C(c2ccccc2)c2ccccc2)CC1 (stereo not shown) [Compound 1]
- overall in vivo efficacy (P. berghei (NK-65)): not significantly better than that of the negative controls
- EC50 (P. falciparum 3D7): 0.06 ± 0.01 µM
- CLint scaled at 2000 µM [1, 5]: 14 ± 1 mL/min/kg
- EC50 (P. falciparum K1): 0.1 ± 0.05 µM
- AUC(0-inf) ([2]; plasma, 20 mg/kg): 0.249 µM·h
- CL/F ([2]; plasma, 20 mg/kg): 2350 mL/min/kg
- AUC(0-inf) ([2]; plasma, 200 mg/kg): 3.1 µM·h
- CL/F ([2]; plasma, 200 mg/kg): 1890 mL/min/kg
- AUC(0-inf) ([2]; plasma, 500 mg/kg): 3.37 µM·h
- CL/F ([2]; plasma, 500 mg/kg): 4340 mL/min/kg

Structure (SMILES): O=C(CCc1ccccc1)c1cc(F)ccc1OCC(O)CN1CCN(C(c2ccccc2)c2ccccc2)CC1 (stereo not shown) [Compound 2]
- CLint scaled at 2000 µM ([1]; microsomes): 5 ± 2 mL/min/kg
- IC50 (Kir6.2/SUR2A): > 5 µM
- AUC(0-inf) ([2]; plasma, 200 mg/kg): 6.17 µM·h
- CL/F ([2]; plasma, 200 mg/kg): 920 mL/min/kg

Structure (SMILES): O=C(CCc1ccc(F)cc1)c1ccccc1OCC(O)CN1CCN(C(c2ccccc2)c2ccccc2)CC1 (stereo not shown) [Compound 3]
- CLint scaled at 2000 µM [1, 5]: 13 ± 1 mL/min/kg
- Avg. Pe (PAMPA permeability) [3]: und^a
- AUC(0-inf) ([2]; plasma, 20 mg/kg): 0.298 µM·h
- CL/F ([2]; plasma, 20 mg/kg): 1900 mL/min/kg
- AUC(0-inf) ([2]; plasma, 200 mg/kg): 5.67 µM·h
- CL/F ([2]; plasma, 200 mg/kg): 1000 mL/min/kg
- AUC(0-inf) ([2]; plasma, 500 mg/kg): 4.08 µM·h
- CL/F ([2]; plasma, 500 mg/kg): 3480 mL/min/kg
- CLint scaled at 2000 µM [4]: 43 ± 3 mL/min/kg

Structure (SMILES): O=C(CCc1ccccc1)c1ccccc1OCC(O)CN1CCC(c2ccccc2)CC1 (stereo not shown) [Compound 4]
- overall in vivo efficacy (P. berghei (NK-65)): some efficacy in suppressing parasitemia and life extension, but did not provide durable cures
- CYP2D6 inhibition (CYP2D6): weak CYP2D6 inhibitors
- CLint scaled at 2000 µM [1, 5]: 11 ± 1 mL/min/kg
- IC50 (Nav1.5; read-out: Nav1.5 phasic IC50, phasic): > 5 µM
- IC50 (Nav1.5; read-out: Nav1.5 tonic IC50, tonic): > 5 µM
- IC50 (Kir6.2/SUR2A): > 5 µM
- improvement in AUCinf over compound 1 ([2]; 500 mg/kg oral, female CD-1 mice): approximately 5 fold
- AUC(0-inf) ([2]; in vivo, 20 mg/kg): 0.224 µM·h
- CL/F ([2]; in vivo, 20 mg/kg): 3110 mL/min/kg
- AUC(0-inf) ([2]; in vivo, 200 mg/kg): 6.8 µM·h
- CL/F ([2]; in vivo, 200 mg/kg): 1020 mL/min/kg
- AUC(0-inf) ([2]; in vivo, 500 mg/kg): 15.3 µM·h
- CL/F ([2]; in vivo, 500 mg/kg): 1140 mL/min/kg
- CLint scaled at 2000 µM [4]: 27 ± 2 mL/min/kg

Structure (SMILES): O=C(CCc1ccccc1)c1cc(F)ccc1OCC(O)CN1CCC(c2ccccc2)CC1 (stereo not shown) [Compound 5]
- CYP2D6 inhibition (CYP2D6): weak CYP2D6 inhibitors
- CLint scaled at 2000 µM [1, 5]: 19 ± 1 mL/min/kg
- Avg. Pe (PAMPA permeability) [3]: und^a
- AUC(0-inf) ([2]; plasma, 20 mg/kg): 1.6 µM·h
- CL/F ([2]; plasma, 20 mg/kg): 421 mL/min/kg
- AUC(0-inf) ([2]; plasma, 200 mg/kg): 3.75 µM·h
- CL/F ([2]; plasma, 200 mg/kg): 1790 mL/min/kg
- increase in Cmax with increasing dose from 20 mg/kg to 200 mg/kg ([2]; oral, female CD-1 mice): 2 fold
- CLint scaled at 2000 µM [4]: 29 ± 2 mL/min/kg

Structure (SMILES): Cc1ccc(N2CCN(CC(O)COc3ccccc3C(=O)CCc3ccccc3)CC2)cc1 (stereo not shown) [Compound 6]
- IC50 (Nav1.5): > 5 µM
- Avg. Pe (PAMPA permeability) [3]: und^a
- IC50 (Kir6.2/SUR2A): > 5 µM
- AUC(0-inf) ([2]; in vivo, 200 mg/kg): 6.49 µM·h
- CL/F ([2]; in vivo, 200 mg/kg): 1000 mL/min/kg
- CLint scaled at 2000 µM [4]: 30 ± 6 mL/min/kg

Source: PMC4408918 (Journal of medicinal chemistry, 2012)
